Where “and” joins values, the source holds several entries; their conditions need not be identical. Equal values may be shown once.
Legend:
[1] = tested on: subjects with PPR; experiment: Study 1 and Study 2: once-daily ivermectin 1% cream vs vehicle in moderate to severe PPR (Example 3); assay type: in vivo, human
Protocol: Both studies were conducted in accordance with the ethical principles of the Declaration of Helsinki and Good Clinical Practices, and in compliance with local regulatory requirements.
Each study had three parts. In the first part of the study, subjects with PPR were treated with ivermectin 1% cream (IVM 1%) or vehicle once daily at bedtime for 12 weeks. In the second part of the study, subjects initially treated with IVM 1% once daily at bedtime continued the same treatment, while subjects treated with the vehicle once daily switched to topical treatment with azelaic acid 15% gel twice daily, in the morning and evening. The third part of the study consisted of 4 weeks safety follow-up, without treatment.
Eligible subjects were 18 years or older, with moderate or severe papulopustular rosacea as noted by an IGA of 3 (“several small or large papules/pustules, moderate erythema”) or 4 (“numerous small and/or large papules/pustules, severe erythema”), and presenting with 15-70 facial inflammatory lesions (papules and pustules). […]
Efficacy assessments at each visit were the IGA of disease severity, and inflammatory lesion counts (papules and pustules) on each of the five facial regions (forehead, chin, nose, right cheek, left cheek). Safety assessments included adverse events (AEs) throughout the study, local tolerance parameters (stinging/burning, dryness, itching) at each study visit evaluated on a 4-point scale [from 0 (none) to 3 (severe)], and laboratory parameters (hematology and biochemistry) measured before and after treatment. […]
The co-primary efficacy endpoints in both studies were the success rate based on the IGA outcome and absolute change from baseline in inflammatory lesion counts at the end of week 12 of the studies. The success rate based on IGA score [% of subjects who achieved “clear” or “almost clear” ratings on the IGA scale at week 12 (ITT-LOCF)] was analyzed by the Cochran-Mantel-Haenszel (CMH) test stratified by analysis site, using the general association statistic. […]

[2] = Plasma pharmacokinetic study of ivermectin 1% cream in subjects with severe PPR (Example 5); assay type: in vivo, human
Protocol: A multi-center, open-label, single treatment study was conducted to assess the pharmacokinetic (PK) profile of ivermectin 1% (w/w) cream in subjects with severe PPR. A maximized dose of about 2 mg/cm^2 (1 g of ivermectin 1% (w/w) cream, equivalent to 10 mg ivermectin per application) was applied to the face once daily for 4 weeks. The treatment was followed by a 28-Day follow-up period.
A total of seventeen subjects received at least one dose of treatment. All subjects provided PK parameters at some time points, but fifteen (9 females and 6 males) provided full PK profiles at Days 0, 14 and 28.
Blood samples for determination of ivermectin levels in plasma were taken from all subjects before application on Days 0, 7, 14, 21 and 28 (pre-dose samples corresponding to Cmin). Additional blood samples were taken on Days 0, 14 and 28 at 1, 3, 6, 9 and 12 hours after application. At, the end of the 28-Day treatment, blood samples were taken on Days 29, 30, 32, 35, 38, 42, 49 and 56 during the follow-up period. The plasma was isolated and frozen (−20° C.) pending analysis.
The pharmacokinetic analysis was performed. From the individual plasma concentrations, the pharmacokinetic parameters were determined by non-compartmental method Kinetica™ sofware, version 4.3, InnaPhase Corporation, Philadelphia, USA).
AUC0-24 H was calculated by the mixed linear-logarithmic trapezoidal method at Day 0, 14 and 28. BLQ was imputed as zero in the individual PK profile.
During the follow up period, the following parameters were measured: • (1) AUC0-t: Area under the concentration-time curve calculated by the mixed linear-logarithmic trapezoidal method from T0 up to the sampling time corresponding to the last quantifiable concentration (Clast); • (2) Kel: The elimination rate constant value (kel) was obtained by linear regression of log-linear terminal phase of concentration-time profile using at least 3 data points, excluding Cmax, otherwise kel was not determined. The acceptability criteria for determination of kel was a coefficient of regression more or equal to 0.98. When kel was not determined, AUC0-inf and t½ were not reported; • (3) t½: The terminal half-life value (t½) was calculated using the equation ln2/kel; • (4) AUC0-inf: Area under the plasma concentration-time curve calculated by the mixed linear-logarithmic trapezoidal method from T0 and extrapolated to time infinity as: AUC0-inf=AUC0-t+Clast/kel.
When the extrapolation represented more than 20%, AUC0-inf and t1/2 […]. Mean values, standard deviation (SD), lowest individual value (Min), maximal individual value (Max) and coefficient of variation (CV) were calculated and reported on each variables (Arithmetic mean for AUC, Cmax, Tmax and harmonic mean for t1/2). Conversely to the protocol, the standard error of mean (SEM) were not calculated and not reported. In addition a statistical analysis was performed on ivermectin specific parameters (including the accumulation ratios).

[3] = orally administered; cited from earlier work

## ivermectin
[1]; 52-week treatment period (Phase 3 study)
  plasma accumulation of ivermectin: no plasma accumulation
[1]; Study 1, week 2
  median reduction from baseline in inflammatory lesion counts: about 30%
[1]; Study 2, week 2
  median reduction from baseline in inflammatory lesion counts: 27.3%
[2]; Day 0
  AUC0-24 H, Min-Max: [3.16-21.28] ng · h/mL
  AUC0-24 H, mean ± SD: 9.29 ± 5.40 ng·h/mL
  Pre-dose/Cmin, Min-Max: [0.17-0.86] ng/mL
  Tmax, Min-Max: [1-24] h
[2]; Day 0 (24 hours after D0), plasma, 1 g ivermectin 1% cream on the face once daily
  Pre-dose/Cmin, mean ± SD: 0.37 ng/mL and 0.37 ± 0.21^(a) ng/mL
[2]; Day 0 (single topical application)
  Cmax, mean ± SD: 0.69 ng/mL
[2]; Day 7
  Pre-dose/Cmin, Min-Max: [0.56-3.26] ng/mL
[2]; Day 7, plasma, ivermectin 1% cream once daily
  Pre-dose/Cmin, mean ± SD: 1.17 ± 0.88 ng/mL
[2]; Day 14
  Pre-dose/Cmin, Min-Max: [0.58-2.34] ng/mL
  Tmax, Min-Max: [0-24] h
[2]; Day 14 (steady state)
  AUC0-24 H, mean ± SD: 36.14 ± 15.56 ng·h/mL
  Cmax, mean ± SD: 2.10 ± 1.04 ng/mL
  Tmax, mean ± SD: 10 ± 8 h
[2]; Day 14, plasma, ivermectin 1% cream once daily
  Pre-dose/Cmin, mean ± SD: 1.26±0.53 ng/mL and 1.26 ± 0.53^(c) ng/mL
[2]; Day 21
  Pre-dose/Cmin, Min-Max: [0.66-3.25] ng/mL
[2]; Day 21, plasma, ivermectin 1% cream once daily
  Pre-dose/Cmin, mean ± SD: 1.36±0.66 ng/mL and 1.36 ± 0.66^(c) ng/mL
[2]; Day 28
  AUC0-24 H, mean ± SD: 35.43 ± 14.42 ng·h/mL
  Cmax, Min-Max: [0.58-3.36] ng/mL
  Cmax, mean ± SD: 1.74 ± 0.77 ng/mL
  Pre-dose/Cmin, Min-Max: [0.53-3.00] ng/mL
  Tmax, Min-Max: [3-24] h
  Tmax, mean ± SD: 11 ± 4 h
  total systemic exposure (AUC0-inf): 312 ± 173 ng·h/mL
[2]; Day 28, plasma, ivermectin 1% cream once daily
  Pre-dose/Cmin, mean ± SD: 1.36 ± 0.63 ng/mL
[2]; after Day 28
  time of last quantifiable concentration after application: approximately 24 days
[2]; after the last topical application (Day 28), 14 subjects
  apparent terminal half-life, range: 92 to 238 h
[2]; steady state, topical
  relative bioavailability vs oral administration of ivermectin: 16%
[3]
  t1/2, typical: around 18 hours
